Assay results published in patent US20070274947A1, “Antisense Oligonucleotides Directed to Ribonucleotide Reductase R1 and Uses Thereof in the Treatment of Cancer” (priority 2003, published 2007).
“Also recorded” adds a separate entry of the source.

Tests used:
[1] = tested on: MDA-CDDP-S4 human in vivo-selected Cisplatin-resistant breast adenocarcinoma cells; assay: Cisplatin-resistant breast adenocarcinoma MDA-CDDP-S4 growth in SCID mice
Experimental: MDA-CDDP-S4 human in vivo-selected Cisplatin-resistant breast adenocarcinoma cells MDA231/CDDPs4) (4×10^6 cells in 100 μl of PBS) were injected into the fat pad (inside of right leg) of 6-7 weeks old female SCID mice. After the size of tumor reached an approximate volume of 100 mm^3, 7-9 days post tumor cell injection, SEQ ID NO:1 was administered by bolus infusion into the tail vein every other day at 10 mg/kg. Control animals received saline alone for the same period. Antitumor effect of SEQ ID NO:1 was further compared to that of Cisplatin or Taxol alone (FIG. 14A) and in combination as indicated in the FIGS. 14B, 14C and 14D. Cisplatin was administered intravenously once a week for three weeks at a dose of 4 mg/kg. Taxol was administered intravenously once a week for three weeks at a dose of 10 mg/kg. Antitumor activities were estimated by the inhibition of tumor volume, which was measured with caliper and each point represents mean tumor volume calculated from 10 animals per experimental group (FIG. 14C). At the end of the study animals were sacrificed, tumor weights taken and mean tumor weights are indicated. […] As expected, treatment with Cisplatin during the same period was ineffective against Cisplatin-resistant tumor.

[2] = tested on: Caki-1 human kidney cancer cells; assay: Caki-1 renal tumor growth in SCID/beige mice; type: in vivo; settings: SCID/beige mice (NK, T and B cell deficient); 10 mg/kg/2 days i.v.; 32 days
Experimental: To address whether SEQ ID NO:1 anti-tumor activity is NK mediated, tumor xenograft growth was assessed in SCID/beige mice that are NK, T and B cell deficient. Caki-1 human kidney cancer cells (5×10^6 cells in 100 μl of PBS) were subcutaneously injected into the right flank of 6-7 weeks old female SCID/beige mice. After the size of tumor reached an approximate volume of 100 mm^3, 7 days post tumor cell injection, SEQ ID NO:1 and SEQ ID NO:1-SCR were administered (10 mg/kg/2 days, i.v.). Control animals received saline alone for the same period. Caliper measurements at 1 week intervals were used to calculate tumor volumes. Each point in FIG. 3 (top) represents mean tumor volume calculated from 10 animals per experimental group. After 32 days the mice were sacrificed and the tumors weighed. Each bar in FIG. 3 (bottom) represents the mean tumor weight and standard error calculated for each treatment group.

[3] = cynomolgus monkey, in vivo
[4] = tested on: human Burkitt's lymphoma (Raji) cells; assay: Survival of SCID mice bearing human Burkitt's lymphoma (Raji); type: in vivo
Experimental: In vivo studies were conducted to assess the therapeutic potential of SEQ ID NO:1 in the treatment of lymphoma. Viable human Burkitt's lymphoma (Raji) cells (5×10^6) collected from subconfluent logarithmically growing cultures were injected i.v. via the tail vein of each animal and disease was allowed to establish for 2 days. SEQ ID NO:1 in normal saline was administered by tail vein injections every second day at a dose of 10 mg/kg. Control animals received saline alone, without oligonucleotide. Treatment with SEQ ID NO:1 was stopped at day 42. The mice in both groups (n−10) were sacrificed at, day 73. Antitumor effects of SEQ ID NO:1 treatment were assessed by the examination of survival of mice (FIG. 18A). All mice died as a consequence of tumor progression within 23 days when left untreated. All SEQ ID NO:1 treated animals, on the other hand, survived beyond day 73 except one mouse which died at day 35. In an independent experiment, mice survived 140 days, even when treatment was stopped at day 70 (FIG. 18B). This experiment also included treatment with a control oligonucleotide, SEQ ID NO:1-SCR (scrambled version of SEQ ID NO:1). The saline and control ODN mice all died from disease progression by day 27. At day 40, the SEQ ID NO:1-treated mice continued treatment every three days until stopping the treatment at day 59. All mice survived to the end of the experimental period.

R1 mRNA = assay: Northern blot of R1 mRNA in HT-29 cells; type: cell-based, human; settings: 0.2 μM, four hours with Lipofectin, 16 hours recovery
Experimental: Total RNA was isolated using TRIzol reagent (GIBCO BRL) after cells were treated with 0.2 μM SEQ ID NO:1 for four hours in the presence of cationic lipid (Lipofectin reagent, GIBCO BRL), washed with PBS, and incubated for 16 hours to recover in normal medium containing 10% FBS. Northern blot analysis was performed as previously described (Hurta and Wright, 1995). RNA was subjected to electrophoresis through 1% formaldehyde agarose gels followed by transfer to nylon membranes. Blots were hybridized in the presence of a R1 fragment (McClarty et al, 1987). Glyceraldehyde-3-phosphate dehydrogenase (GAPDH) mRNA levels were simultaneously probed for RNA loading controls.

[5] = tested on: HT-29 human colon cancer cells; assay: HT-29 colon tumor growth in CD-1 nude mice; type: in vivo; settings: for tumor weight / tumor growth: SEQ ID NO:1 10 mg/kg every other day
Experimental: A. HT-29 human colon cancer cells (3×10^6 cells in 100 μl of PBS) were subcutaneously injected into the right flank of 6-7 weeks old female CD-1 nude mice. After the size of tumor reached an approximate volume of 50 mm^3, 4 days post tumor cell injection, SEQ ID NO:1 was administered by bolus infusion into the tail vein every other day at 10 mg/kg. Control animals received saline alone for the same period. Antitumor effect of SEQ ID NO:1 was further compared to that of mitomycin C alone or that of SEQ ID NO:1 in combination with mitomycin C. Mitomycin C was administered intravenously at days 4, 11 and 18 with a dose of 3.5 mg/kg/week, one hour after the treatments with SEQ ID NO:1. All treatments were stopped at day 22. A day after the last treatment, tumors were excised from the animals and their weights were measured (FIG. 13A). […] The delay in tumor growth achieved with SEQ.
B. HT-29 human colon cancer cells (3×10^6 cells in 100 μl of PBS) were subcutaneously injected into the right flank of 5-6 week old female CD-1 nude mice. After the size of tumor reached an approximate volume of 100 mm^3, 7 days post tumor cell injection, SEQ ID NO:1 was administered by bolus infusion into the tail vein every other day at 10 mg/kg. Control animals received saline alone for the same period. Antitumor effect of SEQ ID NO:1 was further compared to that of CPT-11 alone or that of SEQ ID NO:1 in combination with CPT-11. CPT-11 was administered intraperitoneally for 5 days in a row from day 7-12 with a dose of 20 mg/kg in 100 μl saline. All treatments were stopped at day 32. A day after the last treatment, tumors were excised from the animals and their weights were measured (FIG. 13B).

Question: Which “tumor weight / tumor growth” value ([1]; SCID mice, fat pad, SEQ ID NO:1 10 mg/kg every other day, Cisplatin 4 mg/kg, Taxol 10 mg/kg i.v. weekly for three weeks) does the source give for “5′-CTCTAGCGTCTTAAAGCCGA-3′ (CTCTAGCGTCTTAAAGCCGA; chemistry not given here) [SEQ ID NO:1]” here?
Answer: The value was “significant reduction of tumor weight”.

Question: What about the “delay in tumor growth compared with Taxol” value ([1]; Taxol 10 mg/kg weekly as positive control) of the same substance?
Answer: Its value is “superior to the inhibitory effects observed with Taxol”.

Question: And the “tumor volume and tumor weight” value [2]?
Answer: Its value is “highly effective”.

Question: And the “Cmax and AUC estimates versus dose” value [3]?
Answer: Its value is “proportional with the administered dose”.

Question: And the “mean Cl, high dose group compared to low dose group” value [3]?
Answer: The value was “slightly increased mean Cl value”.

Question: And the “mean elimination t1/2, high dose group compared to low dose group” value [3]?
Answer: Its value is “significantly larger mean elimination t1/2”.

Question: What about the “sex differences in pharmacokinetics” value [3] of the same substance?
Answer: Its value is “no clear observed sex differences”.

Question: What about the survival of mice ([4]; FIG. 18A, 10 mg/kg i.v. every second day, stopped at day 42, one mouse died at day 35, untreated died within 23 days) of the same substance?
Answer: The survival of mice was > 73 days.

Question: What about the survival of mice ([4]; independent experiment FIG. 18B, saline mice died by day 27) of the same substance?
Answer: The survival of mice was ≥ 140 days.

Question: What about the “R1 mRNA level” value (R1 mRNA) of the same substance?
Answer: The value was “specifically decreases R1 mRNA; also recorded: significant decrease; also recorded: decreased R1 mRNA levels”.

Question: What about the “delay in tumor growth compared with mitomycin C alone” value ([5]; FIG. 13A) of the same substance?
Answer: Its value is “superior to the inhibitory effects observed with mitomycin C alone”.

Question: And the “tumor weight / tumor growth” value ([5]; FIG. 13A, mitomycin C 3.5 mg/kg/week i.v., stopped day 22)?
Answer: The value was “significant delay of tumor growth”.

Question: And the “tumor weight / tumor growth” value ([5]; FIG. 13B, CPT-11 20 mg/kg i.p. 5 days, stopped day 32)?
Answer: The value was “significant delay of tumor growth”.
